Measurements taken from patent US11084826B2, “RSV antiviral pyrazolo- and triazolo-pyrimidine compounds” (Janssen Sciences Ireland Unlimited Company, priority 2015, dated 2021).

How the values were obtained:
[1] = Cytotoxicity in HeLa cells, ATP content measured with the ATPlite kit; format: cell-based; conditions: human, TOX HELA pCC50
[2] = test system: rgRSV224 virus; assay: Antiviral activity: inhibition of rgRSV224 (GFP-expressing RSV) replication in HeLa cells, GFP expression read-out; format: cell-based, respiratory syncytial virus (RSV); conditions: human respiratory syncytial virus, HeLa, read-out: RSV HELA pEC50, rgRSV224 virus (MOI=1) in HeLa cells, GFP read-out (converted)
Procedure, shortened: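 EC50 is the 50% inhibitory concentration for GFP expression, read by laser microscopy three days after rgRSV224 infection (MOI=1) of HeLa cells (3,000/well). Compounds were tested as 9 serial 4-fold dilutions at 0.05% DMSO, and cells were incubated at 37° C under 5% CO2.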

SMILES	CC50 at 3 days [1]	EC50 [2]	melting point
CCc1cc(C(=O)N2CCCCCC2C)nc2cc(-c3ccc(-c4nc(C)c(C(=O)O)s4)cc3F)nn12 (stereo not drawn) [Compound F18]	> 25100 nM	200 nM	165 to 170 °C
C[C@@H]1CCCCCN1C(=O)c1cc(C2(C)CC2)n2nc(-c3ccc(-c4ccc(C(=O)O)cn4)cc3F)cc2n1 [Compound F31]	32400 nM	49 nM	257.89 °C
CCc1cc(C(=O)N2CCCCCN2C)nc2cc(-c3ccc(-c4ccc(C(=O)O)cn4)cc3F)nn12 [Compound F35]	> 100000 nM	162 nM	268.78 °C
CCc1cc(C(=O)N2CCCCC[C@H]2C)nc2cc(-c3ccc4ccc(C(=O)O)cc4c3F)nn12 [Compound F36]	> 100000 nM	46.8 nM	274.48 °C
C[C@@H]1CCCCCN1C(=O)c1cc(C2CCC2)n2nc(-c3ccc4c(c3F)OCC(C(=O)O)=C4)cc2n1 [Compound F39]	44700 nM	38.9 nM	230.94 °C
CCc1cc(C(=O)N2CCCCC[C@H]2C)nc2cc(-c3ccc4c(C(=O)O)coc4c3F)nn12 [Compound F40]	52500 nM	132 nM	213.87 °C
CC(C)Cc1cc(C(=O)N2CCCCC[C@H]2C)nc2cc(-c3ccc(-c4ccc(C(=O)O)cn4)cc3F)nn12 [Compound F41]	22400 nM	36.3 nM	197.2 °C
CCc1cc(C(=O)N2CCCCCC2C)nc2cc(-c3ccc(B(O)O)cc3F)nn12 (stereo not drawn) [Compound G1]	> 25100 nM	282 nM	195 to 200 °C
CNc1cc(C(=O)N2CCCCCC2C)nc2cc(-c3ccc(C#N)cc3F)nn12 (stereo not drawn) [Compound H1]	> 25100 nM	562 nM	219 to 220 °C
CC1CCCCCN1C(=O)c1cc(N(C)C)n2nc(-c3ccc(C#N)cc3F)cc2n1 (stereo not drawn) [Compound H2]	> 25100 nM	912 nM	194 to 195 °C
CCc1cc(C(=O)N2CCCCC[C@H]2C)nc2cc(-c3ccc(C#N)cc3F)nn12 [Compound H4]	> 25100 nM	661 nM	96 °C
CCc1cc(C(=O)N2CCCCCC2C)nc2cc(-c3ccc(C#N)cc3F)nn12 (stereo not drawn) [Compound H5]	> 25100 nM	813 nM	95 °C
CCc1cc(C(=O)N2CCCCC[C@H]2C)nc2cc(-c3ccc(C(N)=O)cc3F)nn12 [Compound I1]	> 25100 nM	53.7 nM	180 °C
CCc1cc(C(=O)N2CCCCCC2C)nc2cc(-c3c(F)cc(C(N)=O)cc3F)nn12 (stereo not drawn) [Compound I27]	> 25100 nM	251 nM	160 to 165 °C
CCc1cc(C(=O)N2CCCCCC2C)nc2cc(-c3ccc(C(N)=O)nc3)nn12 (stereo not drawn) [Compound I28]	> 25100 nM	1780 nM	174 to 175 °C
CNc1cc(C(=O)N2CCCCCC2C)nc2cc(-c3ccc(C(N)=O)cc3F)nn12 (stereo not drawn) [Compound I29]	> 25100 nM	295 nM	179 to 181 °C
CC1CCCCCN1C(=O)c1cc(N(C)C)n2nc(-c3ccc(C(N)=O)cc3F)cc2n1 (stereo not drawn) [Compound I30]	> 25100 nM	240 nM	215 to 216 °C
CC1CCCCCN1C(=O)c1cc(C(F)(F)F)n2nc(-c3ccc(C(N)=O)cc3F)cc2n1 (stereo not drawn) [Compound I31]	> 25100 nM	141 nM	238 to 240 °C
CCc1cc(C(=O)N2CCn3cccc3C2C)nc2cc(-c3ccc(C(N)=O)cc3F)nn12 (stereo not drawn) [Compound I35]	> 25100 nM	43.7 nM	242 °C
CCc1cc(C(=O)N2CCc3c([nH]c4ccccc34)C2C)nc2cc(-c3ccc(C(N)=O)cc3F)nn12 (stereo not drawn) [Compound I38]	> 25100 nM	1780 nM	205 to 210 °C
CCc1cc(C(=O)N2CCCCCC2C)nc2c(F)c(-c3ccc(C(N)=O)cc3F)nn12 (stereo not drawn) [Compound J1]	> 25100 nM	148 nM	173 °C
CCc1cc(C(=O)N2CCCCCC2C)nc2c(F)c(-c3ccc(C(N)=O)cc3)nn12 (stereo not drawn) [Compound J2]	> 25100 nM	263 nM	195 to 200 °C
CCc1cc(C(=O)N2CCc3ccccc3C2C)nc2cc(-c3ccc(C(=O)O)cc3F)nn12 (stereo not drawn) [Compound K1]	> 25100 nM	158 nM	165 to 170 °C
CCc1cc(C(=O)N2CCCCCC2C)nc2cc(-c3ccc(C(=O)O)cc3F)nn12 (stereo not drawn) [Compound K2]	> 25100 nM	562 nM	210 °C
CCc1cc(C(=O)N2Cc3ccccc3CC2C)nc2cc(-c3ccc(C(=O)O)cc3F)nn12 (stereo not drawn) [Compound K3]	> 25100 nM	1100 nM	150 to 155 °C

SMILES	CC50 at 3 days [1]	EC50 [2]	melting point
CCc1cc(C(=O)N2CCCCCCC2C)nc2cc(-c3ccc(C(=O)O)cc3F)nn12 (stereo not drawn) [Compound K4]	> 25100 nM	275 nM	133 to 134 °C
CCc1cc(C(=O)N2CCCCC[C@H]2C)nc2cc(-c3ccc(C(=O)O)cc3F)nn12 [Compound K5]	> 25100 nM	309 nM	148 °C
CCc1cc(C(=O)N2CC(C)(C)c3ccccc3C2C)nc2cc(-c3ccc(C(=O)O)cc3F)nn12 (stereo not drawn) [Compound K6]	> 25100 nM	2400 nM	235 to 240 °C
CCc1cc(C(=O)N2CCCc3ccccc3C2C)nc2cc(-c3ccc(C(=O)O)cc3F)nn12 (stereo not drawn) [Compound K8]	> 25100 nM	437 nM	105 to 110 °C
CCc1cc(C(=O)N2CCn3cccc3C2C)nc2cc(-c3ccc(C(=O)O)cc3F)nn12 (stereo not drawn) [Compound K9]	> 25100 nM	525 nM	155 to 160 °C
CCc1cc(C(=O)N2CCCCCC2C)nc2cc(-c3ccc(C(=O)NC4CC4)cc3F)nn12 (stereo not drawn) [Compound L1]	> 25100 nM	129 nM	196 °C
CCc1cc(C(=O)N2CCCCCC2C)nc2cc(-c3ccc(C(=O)NCCN(C)C)cc3F)nn12 (stereo not drawn) [Compound L2]	> 25100 nM	550 nM	178 °C
CCCNC(=O)c1ccc(-c2cc3nc(C(=O)N4CCCCCC4C)cc(CC)n3n2)c(F)c1 (stereo not drawn) [Compound L3]	> 25100 nM	240 nM	188 °C
CCc1cc(C(=O)N2CCCCCC2C)nc2cc(-c3ccc(C(=O)NCCNC(C)=O)cc3F)nn12 (stereo not drawn) [Compound L4]	> 25100 nM	234 nM	174 °C
CCc1cc(C(=O)N2CCCCCC2C)nc2cc(-c3ccc(C(=O)NCCO)cc3F)nn12 (stereo not drawn) [Compound L5]	> 25100 nM	158 nM	177 °C
CCc1cc(C(=O)N2CCCCCC2C)nc2cc(-c3ccc(C(=O)NO)cc3F)nn12 (stereo not drawn) [Compound L6]	20400 nM	148 nM	180 °C
CCc1cc(C(=O)N2CCCCCC2C)nc2cc(-c3ccc(C(=O)NCc4ccco4)cc3F)nn12 (stereo not drawn) [Compound L7]	> 25100 nM	240 nM	168 °C
CCc1cc(C(=O)N2CCCCCC2C)nc2cc(-c3ccc(C(=O)NCc4cccs4)cc3F)nn12 (stereo not drawn) [Compound L8]	> 25100 nM	324 nM	156 °C
CCc1cc(C(=O)N2CCCCCC2C)nc2cc(-c3ccc(C(=O)NNCC4CC4)cc3F)nn12 (stereo not drawn) [Compound L9]	> 25100 nM	372 nM	140 °C
CCc1cc(C(=O)N2CCCCCC2C)nc2cc(-c3ccc(C(=O)NS(C)(=O)=O)cc3F)nn12 (stereo not drawn) [Compound L10]	> 25100 nM	2690 nM	194 °C
CCc1cc(C(=O)N2CCc3ccccc3C2C)nc2cc(-c3ccc(C(=O)NC(C)C(=O)O)cc3F)nn12 (stereo not drawn) [Compound L11]	> 25100 nM	631 nM	165 to 170 °C
CCc1cc(C(=O)N2CCCCCC2C)nc2cc(-c3ccc(/C=C/C(=O)O)cc3F)nn12 (stereo not drawn) [Compound M1]	> 25100 nM	174 nM	205 to 210 °C
CNc1cc(C(=O)N2CCCCC[C@H]2C)nc2cc(-c3ccc(/C=C/C(=O)O)cc3F)nn12 [Compound M3]	> 25100 nM	251 nM	198 to 200 °C
CC1c2ccccc2CCN1C(=O)c1cc(N(C)C)n2nc(-c3ccc(/C=C/C(=O)O)cc3F)cc2n1 (stereo not drawn) [Compound M10]	20000 nM	47.9 nM	243 to 245 °C
CCc1cc(C(=O)N2CCc3ccccc3C2C)nc2cc(-c3ccc(/C=C/C(=O)O)cc3F)nn12 (stereo not drawn) [Compound M11]	> 25100 nM	38 nM	225 to 230 °C
C[C@@H]1CCCCCN1C(=O)c1cc(N(C)C)n2nc(-c3ncc(/C=C/C(=O)O)cc3Cl)cc2n1 [Compound M12]	> 25100 nM	4070 nM	197 to 199 °C
C[C@@H]1CCCCCN1C(=O)c1cc(C2(C)CC2)n2nc(-c3ccc(/C=C/C(=O)O)cc3F)cc2n1 [Compound M20]	36300 nM	32.4 nM	228.12 °C
C[C@@H]1CCCCCN1C(=O)c1cc(C2CCC2)n2nc(-c3cccc(/C=C/C(=O)O)c3F)cc2n1 [Compound M23]	> 100000 nM	44.7 nM	231.54 °C
CCOc1cc(C(=O)N2CCCCC[C@H]2C)nc2cc(-c3ccc(/C=C/C(=O)O)cc3F)nn12 [Compound M24]	> 100000 nM	380 nM	213.66 °C
